Laboratory results as given in patent US11814376B2, “Hepatitis b core protein modulators” (Assembly Biosciences, Inc., priority 2015, dated 2023).

Legend:
AD38 cells = test: Viability of AD38 cells (Promega CellTiter-Glo); format: cell-based; conditions: 10 μM compound, 6 days, CellTiter-Glo luminescence normalized to DMSO control (100%)
Procedure: (§1) Example 2: Assay Measuring Activity of Compounds on Viral Production in and on Viability of AD38 Cells
(§2) AD38 cells were then re-suspended with 10 mL of Treatment Medium and counted. Wells of a collagen coated 96-well NUNC microtiter plate were seeded at 50,000/well in 180 μL of Treatment Medium, and 20 μL of in treatment media with either 10% DMSO (Control) or a 10× solution of compound in 10% DMSO was added. Plates were incubated for 6 days at 37° C.
At the end of compound treatment period cell viability was assessed using a Promega CellTiter-Glo protocol. All supernatant was removed the previously treated 96-well microtiter plate, and 50 μL Tetracycline-free treatment medium (DMEM/F12 (1:1), 1× Pen/step (cat #: 30-002-CL, Mediatech, Inc), with 2% FBS, Tet-system approved (cat #: 631106, Clontech), and 1% DMSO was added back to each well. Another 50 μL of CellTiter-Glo reagent solution (Promega, G7573) was then added at room temperature and the contents mixed for 2 minutes on an orbital shaker to induce cell lysis. This was followed by incubation at room temperature for 10 minutes to stabilize the luminescent signal. The luminescence was recorded for 0.2 seconds per well on a Tecan multimode plate reader (Infinite M1000 pro). The luminescent signal from each well was normalized against that of untreated (DMSO) control wells. All results were reported percent viability (with controls being 100%).

[1] = test system: HBV viral load in AD38 cells; test: Viral load production in AD38 cells, quantitative PCR of the core sequence in supernatant; format: cell-based; conditions: 10 μM compound, 6 days at 37° C., supernatant qPCR, relative to DMSO control; for activity at 10 µM: Hepatitis B virus, 144 h, read-out: AD38 Viral Load (%) (VL with cmpd/VL in DMSO control) at 10 μM
Procedure: as §1, §2
Viral load production was assayed by quantitative PCR of the core sequence. […] The PCR mixture was incubated at 45° C. for 5 minutes, then 95° C. for 10 min, followed by 40 cycles of 10 seconds at 95° C. and 20 seconds at 60° C. Viral load was quantitated against known standards by using ViiA™ 7 Software. Viral load in the supernatant from wells with treated cells were compared against viral load in supernatant from DMSO control wells (>3 per plate).

CC(C)(C)OC(=O)N1CC(COc2ccc(-c3ncc(CNC(=O)c4ccc5c(c4)NC(=O)c4ccccc4S5(=O)=O)s3)cc2)C1 [1995-A, tert-butyl 3-((4-(5-((5,5-dioxido-11-oxo-10, 11-dihydrodibenzo [b, f] [1, 4]thiazepine-8-carboxamido)methyl)thiazol-2-yl)phenoxy)methyl) azetidine-1-carboxylate]
AD38 Viability Normalized Result (cmpd/DMSO %) at 10 μM (AD38 cells): 107%
AD38 Viral Load (%) (VL with cmpd/VL in DMSO control) at 10 μM [1]: 2.4%

O=C(NCc1cnc(-c2ccc(C#CCCO)cc2)s1)c1ccc2c(c1)NC(=O)c1ccccc1S2(=O)=O [11002-A, N-((2-(4-(4-hydroxybut-1-yn-1-yl)phenyl)thiazol-5-yl)methyl)-11-oxo-10, 11-dihydrodibenzo [b, f] [1, 4] thiazepine-8-carboxamide 5,5-dioxide]
AD38 Viability Normalized Result (cmpd/DMSO %) at 10 μM (AD38 cells): 106%
activity at 10 µM [1]: 1%

CC(C)(C)OC(=O)NCCCSc1ccc(-c2ncc(CNC(=O)c3ccc4c(c3)NC(=O)c3ccccc3S4(=O)=O)s2)cc1 [11007-A, tert-butyl (3-((4-(5-((5,5-dioxido-11-oxo-10, 11-dihydrodibenzo [b, f] [1, 4]thiazepine-8-carboxamido)methyl)thiazol-2-yl)phenyl)thio)propyl) carbamate]
AD38 Viability Normalized Result (cmpd/DMSO %) at 10 μM (AD38 cells): 75%
AD38 Viral Load (%) (VL with cmpd/VL in DMSO control) at 10 μM [1]: 0.9%

CC(C)(C)OC(=O)N1CCN(C(=O)c2ccc(-c3ncc(CNC(=O)c4ccc5c(c4)NC(=O)c4ccccc4S5(=O)=O)s3)cc2)CC1 [11016-A, tert-butyl 4-(4-(5-((5,5-dioxido-11-oxo-10, 11-dihydrodibenzo [b, f] [1, 4]thiazepine-8-carboxamido)methyl)thiazol-2-yl)benzoyl) piperazine-1-carboxylate]
AD38 Viability Normalized Result (cmpd/DMSO %) at 10 μM (AD38 cells): 103%
AD38 Viral Load (%) (VL with cmpd/VL in DMSO control) at 10 μM [1]: 6.7%

CC(C)(C)OC(=O)NCCNC(=O)c1ccc(-c2ncc(CNC(=O)c3ccc4c(c3)NC(=O)c3ccccc3S4(=O)=O)s2)cc1 [11017-A, tert-butyl (2-(4-(5-((5,5-dioxido-11-oxo-10, 11-dihydrodibenzo [b, f] [1, 4]thiazepine-8-carboxamido)methyl)thiazol-2-yl)benzamido)ethyl)carbamate]
AD38 Viability Normalized Result (cmpd/DMSO %) at 10 μM (AD38 cells): 102%
activity at 10 µM [1]: 8.8%

CC(C)(C)OC(=O)N1CCN(c2ccc(-c3ncc(CNC(=O)c4ccc5c(c4)NC(=O)c4ccccc4S5(=O)=O)s3)cn2)CC1 [11019-A, tert-butyl 4-(5-(5-((5,5-dioxido-11-oxo-10, 11-dihydrodibenzo [b, f] [1, 4]thiazepine-8-carboxamido)methyl)thiazol-2-yl)pyridin-2-yl) piperazine-1-carboxylate]
AD38 Viability Normalized Result (cmpd/DMSO %) at 10 μM (AD38 cells): 95%
AD38 Viral Load (%) (VL with cmpd/VL in DMSO control) at 10 μM [1]: 1.0%

CC(C)(C)OC(=O)NCCCS(=O)(=O)c1ccc(-c2ncc(CNC(=O)c3ccc4c(c3)NC(=O)c3ccccc3S4(=O)=O)s2)cc1 [11032-A, tert-butyl (3-((4-(5-((5,5-dioxido-11-oxo-10, 11-dihydrodibenzo [b, f] [1, 4]thiazepine-8-carboxamido)methyl)thiazol-2-yl)phenyl)sulfonyl)propyl) carbamate]
AD38 Viability Normalized Result (cmpd/DMSO %) at 10 μM (AD38 cells): 110%
AD38 Viral Load (%) (VL with cmpd/VL in DMSO control) at 10 μM [1]: 12.9%

O=C(NCc1cnc(-c2ccc(SCCCO)cc2)s1)c1ccc2c(c1)NC(=O)c1ccccc1S2(=O)=O [11063-A, N-((2-(4-((3-hydroxypropyl)thio)phenyl)thiazol-5-yl)methyl)-11-oxo-10, 11-dihydrodibenzo [b, f] [1, 4] thiazepine-8-carboxamide 5,5-dioxide]
AD38 Viability Normalized Result (cmpd/DMSO %) at 10 μM (AD38 cells): 104%
activity at 10 µM [1]: 0.4%

O=C(NCc1cnc(-c2ccc(S(=O)(=O)CCCO)cc2)s1)c1ccc2c(c1)NC(=O)c1ccccc1S2(=O)=O [11063-B, N-((2-(4-((3-hydroxypropyl)sulfonyl)phenyl)thiazol-5-yl)methyl)-11-oxo-10, 11-dihydrodibenzo [b, f] [1, 4] thiazepine-8-carboxamide 5,5-dioxide]
AD38 Viability Normalized Result (cmpd/DMSO %) at 10 μM (AD38 cells): 95%
activity at 10 µM [1]: 5.4%

CC(C)(C)OC(=O)N1CCC[C@@H]1COc1ccc(-c2ncc(CNC(=O)c3ccc4c(c3)NC(=O)c3ccccc3S4(=O)=O)s2)cc1 [11104-A, tert-butyl (R)-2-((4-(5-((5,5-dioxido-11-oxo-10, 11-dihydrodibenzo [b, f] [1, 4]thiazepine-8-carboxamido)methyl)thiazol-2-yl)phenoxy)methyl) pyrrolidine-1-carboxylate]
AD38 Viability Normalized Result (cmpd/DMSO %) at 10 μM (AD38 cells): 74%
activity at 10 µM [1]: 0.9%

COC(=O)[C@@H]1CCCN1CCCOc1ccc(-c2ncc(CNC(=O)c3ccc4c(c3)NC(=O)c3ccccc3S4(=O)=O)s2)cc1 [11106-A]
AD38 Viability Normalized Result (cmpd/DMSO %) at 10 μM (AD38 cells): 90%
activity at 10 µM [1]: 3.6%

COC(=O)C1CCN(CCCOc2ccc(-c3ncc(CNC(=O)c4ccc5c(c4)NC(=O)c4ccccc4S5(=O)=O)s3)cc2)C1 (centres unmarked) [11107-A, methyl 1-(3-(4-(5-((5,5-dioxido-11-oxo-10, 11-dihydrodibenzo [b, f] [1, 4]thiazepine-8-carboxamido)methyl)thiazol-2-yl)phenoxy)propyl) pyrrolidine-3-carboxylate]
AD38 Viability Normalized Result (cmpd/DMSO %) at 10 μM (AD38 cells): 100%
AD38 Viral Load (%) (VL with cmpd/VL in DMSO control) at 10 μM [1]: 7.7%

O=C(NCc1cnc(-c2ccc(OCCCOn3nnc4cccnc43)cc2)s1)c1ccc2c(c1)NC(=O)c1ccccc1S2(=O)=O [11108-B, N-((2-(4-(3-((3H-[1,2,3]triazolo[4,5-b]pyridin-3-yl)oxy)propoxy)phenyl)thiazol-5-yl)methyl)-11-oxo-10,11-dihydrodibenzo[b, f] [1,4]thiazepine-8-carboxamide 5,5-dioxide]
AD38 Viability Normalized Result (cmpd/DMSO %) at 10 μM (AD38 cells): 101%
activity at 10 µM [1]: 0.8%

CC(C)c1cnn(-c2ncc(CNC(=O)c3ccc4c(c3)NC(=O)c3ccccc3S4(=O)=O)s2)c1 [11117-A]
AD38 Viability Normalized Result (cmpd/DMSO %) at 10 μM (AD38 cells): 110%
activity at 10 µM [1]: 0.3%

Cc1c(C(=O)NCc2cnc(-c3ccc(OCCCN(C)C)cc3)s2)ccc2c1NC(=O)c1ccccc1S2 [C20-01]
AD38 Viability Normalized Result (cmpd/DMSO %) at 10 μM (AD38 cells): 98%
activity at 10 µM [1]: 1.5%

Cc1c(C(=O)NCc2cnc(-n3cccn3)s2)ccc2c1NC(=O)c1ccccc1S2 [C20-02]
AD38 Viability Normalized Result (cmpd/DMSO %) at 10 μM (AD38 cells): 95%
activity at 10 µM [1]: 0.5%

Cc1c(C(=O)NCc2cnc(-c3ccc(OCCCN(C)C)cc3)s2)ccc2c1NC(=O)c1ccccc1S2(=O)=O [C38-01]
AD38 Viability Normalized Result (cmpd/DMSO %) at 10 μM (AD38 cells): 99%
activity at 10 µM [1]: 1.3%

Cc1c(C(=O)NCc2cnc(-n3cccn3)s2)ccc2c1NC(=O)c1ccccc1S2(=O)=O [C38-02]
AD38 Viability Normalized Result (cmpd/DMSO %) at 10 μM (AD38 cells): 94%
activity at 10 µM [1]: 0.5%

Cc1c(C(=O)NCc2cnc(-c3ccc(OCCCN(C)C)cc3)s2)ccc2c1NC(=O)c1ccccc1O2 [C44-01]
AD38 Viability Normalized Result (cmpd/DMSO %) at 10 μM (AD38 cells): 97%
activity at 10 µM [1]: 2.6%

CN(C)CCCOc1ccc(-c2ncc(CNC(=O)c3ccc4c(c3Cl)NC(=O)c3ccccc3S4(=O)=O)s2)cc1 [C51-01]
AD38 Viability Normalized Result (cmpd/DMSO %) at 10 μM (AD38 cells): 99%
activity at 10 µM [1]: 0.4%

O=C1Nc2c(ccc(C(=O)NCc3cnc(-n4cccn4)s3)c2Cl)S(=O)(=O)c2ccccc21 [C51-02]
AD38 Viability Normalized Result (cmpd/DMSO %) at 10 μM (AD38 cells): 98%
activity at 10 µM [1]: 0.2%

O=C(NCc1cnc(C(F)(F)F)s1)c1ccc2c(c1)NC(=O)c1ccccc1S2 [compound 1421]
AD38 Viability Normalized Result (cmpd/DMSO %) at 10 μM (AD38 cells): 104%
activity at 10 µM [1]: 1.3%

CNc1ncc(CNC(=O)c2ccc3c(c2)NC(=O)c2ccccc2S3)s1 [compound 1424]
AD38 Viability Normalized Result (cmpd/DMSO %) at 10 μM (AD38 cells): 97%
activity at 10 µM [1]: 0.5%

CN(C)c1ncc(CNC(=O)c2ccc3c(c2)NC(=O)c2ccccc2S3)s1 [compound 1425]
AD38 Viability Normalized Result (cmpd/DMSO %) at 10 μM (AD38 cells): 100%
activity at 10 µM [1]: 0.6%

O=C(NCc1scnc1C(F)(F)F)c1ccc2c(c1)NC(=O)c1ccccc1S2 [compound 1431]
AD38 Viability Normalized Result (cmpd/DMSO %) at 10 μM (AD38 cells): 103%
activity at 10 µM [1]: 5.5%
